According to patent publication US6680058B1, “Compositions and methods for contraception in or sterilization of mammals” (Board of Supervisors of Louisiana State University and …, priority 1997, dated 2004):
Where no end group is shown, it is not given here.

Tests used:
Assay type in all cases: in vivo, rat
[1] = tested on: sexually immature female rats; experiment: Thirty-three-day-old sexually immature female rats, intravenous, sacrificed 14 days after treatment, histology and immunocytochemistry (Examples 35-38); details: Treatment 37: 0.5 mg i.v.
Experimental: Another set of experiments was performed to study the in vivo effects of the GnRH-hecate conjugate on female rats and rabbits. The ovaries, uterus, oviducts, adrenals, spleen, thyroids, pancreas, liver, lungs, and heart were processed for histological analysis. […] The immunocytochemical staining procedures we used followed generally the procedures of M. Rahmanian et al., “Histological and immunocytochemical characterization of pituitary cell types in ponies,” Proc. 13th Soc. Equine Nutrition & Phys. Symp., pp. 348-349 (1993); M. Rahmanian et al., “Immunocytochemical localization of luteinizing hormone and follicle-stimulating hormone in the equine pituitary,” J. Anim. Sci., vol. 76, pp. 839-846 (1998); M. Rahmanian et al., “Immunocytochemical localization of prolactin and growth hormone in the equine pituitary,” Animal Sci., vol. 75, pp. 3010-3018 (1997); and P. Melrose et al., “Comparative topography of the immunoreactive alpha-melanocyte-stimulating hormone neuronal system in the brains of horses and rats,” Brain Beh. & Evol., vol. 32, pp. 226-235 (1988).
Brains were serially sectioned on a Vibrotome from the level of the diagonal band of Broca to the mammillary body. Alternate sections were consecutively divided into four to five dishes, and sections in alternate dishes were stained with cresyl violet, or were stained immunocytochemically for GnRH or the GnRH precursor, VP, OXY, or tyrosine hydroxylase (the rate-limiting enzyme in catecholamine synthesis). In addition to the staining procedures cited above, we also used the immunocytochemical staining procedures of P. Melrose et al., “Distribution and morphology of immunoreactive gonadotropin-releasing hormone (GnRH) neurons in the basal forebrain of ponies,” J. Comp. Neurol. vol. 339, pp. 269-287 (1994); and P. Melrose et al., “Topography of oxytocin and vasopressin neurons in the forebrain of Equus caballus: Further support of proposed evolutionary relationships for proopiomelanocortin, oxytocin and vasopressin neurons,” Brain, Beh. & Evol., vol. 33, pp. 193-204 (1989).
Thirty-three-day-old, sexually immature female rats were given intravenous administrations as follow:
Animals were sacrificed 14 days after treatment.

[2] = tested on: sexually mature, mixed breed, female rats; experiment: Sexually mature female rats, double intravenous treatment, necropsy two weeks after treatment (Examples 9-14)
Description: Eighteen sexually mature, mixed breed, female rats were randomly assigned to one of six groups containing three rats each. Each group of rats received a double treatment intravenously, as described below. Two weeks after the treatment, the rats were sacrificed and necropsied. The reproductive and endocrine organs were sectioned, weighed, and examined histologically.

[3] = tested on: sexually immature female rats; experiment: Sexually immature female rats, two intravenous injections, examined after reaching breeding age (Examples 7-8)
Experimental: Two sexually immature female rats from the same litter (age 33 days) were given two intravenous injections of saline control solution 24 hours apart. After the rats reached breeding age, they were examined 105 days post-inoculation. […] During a fourteen-day monitoring period 107 days to 121 days post-inoculation, each of the control rats completed two estrous cycles. The rats were then sacrificed and necropsied. The reproductive organs appeared histologically normal.
Two sexually immature female rats from the same litter as those of Example 7 (age 33 days) were given two intravenous injections of 500 μg GnRH/hecate fusion peptide in saline 24 hours apart. After the rats reached breeding age, they were examined 105 days post-inoculation. […] Unlike the control rats, insertion of a cotton-tipped swab into the vagina was difficult. […] The rats were then sacrificed and necropsied.

[4] = Treatment 10: two 0.5 mg i.v. injections 24 hours apart, two weeks
[5] = Treatment 14: fusion peptide further purified by HPLC, two 0.5 mg i.v. injections 24 hours apart
[6] = two i.v. injections of 500 μg 24 hours apart at age 33 days, necropsy after day 121

GnRH-hecate: fusion peptide of modified GnRH bonded directly to the lytic peptide hecate, SEQ. ID NO. 3 (QHWSYGLRPGFALALKALKKALKKLKKALKKAL; ends and bridges not checked; also: GnRH part modified, modification not given here)
reduction of pituitary weights compared to the two GnRH control groups ([1]; 33-day-old female rat, 14 days after treatment): 13%
adrenocorticotropic hormone levels in the pars distalis ([1]; 14 days): reduced
cell bodies of GnRH-stained neurons in hypophysiotropic areas of the brain ([1]; 14 days): frequently deformed
histology of the C1 and C3 fields of the hippocampus ([1]; 14 days): histological damage to cells
number of alpha-MSH-stained cells in the pars distalis ([1]; 14 days): increased
pathological changes in any other tissues ([1]; 14 days): No pathological changes
reduction of the numbers of bLH-specific gonadotropes compared to the two GnRH control groups ([1]; 14 days): 92%
VP staining in the paraventricular nucleus ([1]; 14 days, may have been caused by a precipitate): increased staining of parvicellular VP neurons in the paraventricular nucleus
ovarian function / follicular development ([2]; Treatment 10: total 1.0 mg in saline i.v. as two 0.5 mg injections 24 hours apart, two weeks): arrest of normal ovarian follicular development
corpora lutea and follicles [2, 4]: Few corpora lutea were present, and those that were present appeared old. Follicles were large, and had not ruptured
pituitary size [2, 4]: slightly smaller than the pituitaries from the saline control group
uterine morphology [2, 4]: consistent with hormonal inactivity
corpora lutea and follicles [2, 5]: Few corpora lutea were present, and those that were present appeared old. Follicles were large, and had not ruptured
uterine morphology [2, 5]: consistent with hormonal inactivity
ovarian function / follicular development ([2]; Treatment 14: fusion peptide further purified by HPLC, two 0.5 mg i.v. injections 24 hours apart, two weeks): arrest of normal ovarian follicular development
estrous cycling during fourteen-day monitoring period ([3]; two i.v. injections of 500 μg 24 hours apart at age 33 days, 107 to 121 days post-inoculation): neither of the treated rats demonstrated estrous or metestrous
insertion of a cotton-tipped swab into the vagina ([3]; two i.v. injections of 500 μg 24 hours apart at age 33 days, 105 days post-inoculation): difficult
ovarian follicles at necropsy [3, 6]: contained no large follicles, and had a high number of atretic follicles
uterine and oviductal epithelia at necropsy [3, 6]: thinned, inactive
appearance of external genitalia ([3]; two i.v. injections of 500 μg in saline 24 hours apart at age 33 days, examined 105 days post-inoculation): appeared small
